Source: patent US20010044445A1, “AZOLE INHIBITORS OF CYTOKINE PRODUCTION” (priority 1999, published 2001)

System: Human peripheral blood mononuclear cells
Assay: Human Concanavalin-A Proliferation Assay (Con HU Assay)
Assay type: cell-based
Conditions: concanavalin-A stimulated human PBMC; for inhibition at 10 µM / inhibition at 100 µM / inhibition at 1 µM: 72 h, read-out: % Inhibition of proliferation (at concentrations of 1,10, or 100 μm); for inhibition at 10 µM / inhibition at 100 µM / % Inhibition of proliferation (at concentrations of 1,10, or 100 μm) / inhibition at 1 µM: 3 days; for inhibition at 100 µM: concentration 100 μm (in parentheses in the cell); for IC50: tritiated thymidine
Method: Human peripheral blood mononuclear cells were cultured in RPMI 1640 medium supplemented with 10 μg/ml gentamicin, 50 μM 2-mercaptoethanol, 1X MEM non-essential amino acids (Sigma Chemical Co., St. Louis, Mo.), 100 U/ml sodium penicillin G, 100 μg/ml streptomycin sulfate, 2 mM L-glutamine, 1 mM sodium pyruvate (Life Technologies, Grand Island, N.Y.) and 10% fetal bovine serum (Hyclone, Logan, Utah) at 37° C. with 5% CO2.
The procedure in Current Protocols in Immunology, Volume 1, Published by the Greene Publishing Associates and John Wiley & Sons, Inc, Edited by Richard Coico, 1994, hereby incorporated by reference, was followed. Briefly, 50 ml of blood from human volunteers was collected in heparinized syringes and mixed. Blood was diluted 1:1 in Dulbecco's phosphate buffered saline (D-PBS) (Life Technologies, Grand Island, N.Y.) and mixed. PBS-blood mixture was overlaid into 50 ml centrifuge tubes containing 15 ml Histopaque 1077 (Sigma Chemical Co., St. Louis, Mo.) and centrifuged at 500 X G for 30 minutes at room temperature. Cells at the interface from each Histopaque tube were removed and mixed with 5 ml of D-PBS. Each cell suspension was diluted to 50 ml with D-PBS, mixed and centrifuged at 400 X G for 15 minutes at room temperature. After most of the supernatant was removed, cells were resuspended to 40 ml with D-PBS per tube (2 tubes per donor). Cells were centrifuged at 400 X G for 10 minutes at room temperature. Pellets were resuspended in 10 ml of supplemented RPMI 1640 and cell number determined with a Coulter counter. Cells were diluted to a concentration of 0.5×10^6 cells per mL.
The procedure in Current Protocols in Immunology, Volume 1, Published by the Greene Publishing Associates and John Wiley & Sons, Inc, Edited by Richard Coico, 1994, hereby incorporated by reference, was followed. Briefly, test compounds were added to appropriate wells on 96-well tissue culture plates (Corning Glass Works, Corning, N.Y.) in 20 µl of supplemented RPMI 1640. Human peripheral blood mononuclear cells were added to each well in 100 μl volumes (final cell concentration equal to 50,000 cells per well). After 15 minutes, 100 μl of 5 μg/ml concanavalin-A (Sigma Chemical Co., St. Louis, Mo.) in supplemented RPMI 1640 was added to a final concentration of 2.5 μg/ml. Plates were incubated for 3 days at 37° C. with 5% CO2. On day 3, plates were pulsed with 0.5 μCi/well tritiated thymidine (New England Nuclear, Boston, Mass.). After 6 hours, plates were harvested on a Tomatec 96-well havester (Orange, Conn.). Glass filter mats were counted on a Matrix 9600 direct beta counter (Packard, Meriden, Conn.).

[1] = Homo sapiens, PBMC, concentration 10 μm (in parentheses in the cell)
[2] = concentration 1 μm (in parentheses in the cell)
[3] = concentration 10 μm (in parentheses in the cell)
[4] = Homo sapiens, PBMC, concentration 1 μm (in parentheses in the cell)

SMILES: N#Cc1cccc(/C=C\c2ccc(-n3nc(C(F)(F)F)cc3C(F)(F)F)cc2)c1 [Example 139, (Z)-3-[2-[4-[3,5-bis(trifluoromethyl)-1H-pyrazol-1-yl]phenyl]ethenyl]benzonitrile]
- inhibition at 10 µM [1]: 5%

SMILES: O=C(Nc1ccc(-n2nc(C(F)(F)F)cc2C(F)(F)F)cc1)c1cccc(Br)c1 [Example 144, N-[4-[3,5-bis(trifluoromethyl)-1H-pyrazol-1-yl]phenyl]-3-bromobenzamide]
- inhibition at 100 µM (Homo sapiens, PBMC): 100%
- IC50 (Homo sapiens, PBMC): 0.24 µM

SMILES: CC(=O)Nc1ccc(-n2nc(C(F)(F)F)cc2C(F)(F)F)cc1 [Example 156]
- % Inhibition of proliferation (at concentrations of 1,10, or 100 μm) [2]: 16(1) %

SMILES: O=C(CCCNC(=O)OCc1ccccc1)Nc1ccc(-n2nc(C(F)(F)F)cc2C(F)(F)F)cc1 [Example 158]
- % Inhibition of proliferation (at concentrations of 1,10, or 100 μm) [2]: 30(1) %

SMILES: O=C(Nc1ccc(-n2nc(C(F)(F)F)cc2C(F)(F)F)cc1)c1sccc1Br [Example 161, N-[4-[3,5-bis(trifluoromethyl)-1H-pyrazol-1-yl]phenyl]-3-bromo-2-thiophenecarboxamide]
- inhibition at 100 µM (Homo sapiens, PBMC): 99%
- IC50 (Homo sapiens, PBMC): 0.231 µM

SMILES: O=C(Nc1ccc(-n2nc(C(F)(F)F)cc2C(F)(F)F)cc1)c1cnccn1 [Example 172, N-[4-[3,5-Bis(trifluoromethyl)-1H-pyrazol-1-yl]phenyl]pyazinecarboxamide]
- % Inhibition of proliferation (at concentrations of 1,10, or 100 μm) [2]: 48(1) %

SMILES: CC(C)(C)OC(=O)NCCCC(=O)Nc1ccc(-n2nc(C(F)(F)F)cc2C(F)(F)F)cc1 [Example 173, 1,1-Dimethylethyl [[4-[4-[3,5-bis(trifluoromethyl)-1H-pyrazol-1-yl]phenyl]amino]-4-oxobutyl]carbamate]
- % Inhibition of proliferation (at concentrations of 1,10, or 100 μm) [2]: 28(1) %

SMILES: CCCC(=O)Nc1ccc(-n2nc(C(F)(F)F)cc2C(F)(F)F)cc1 [Example 175, N-[4-[3,5-Bis(trifluoromethyl)-1H-pyrazol-1-yl]phenyl]butanamide]
- inhibition at 100 µM (Homo sapiens, PBMC): 100%
- IC50 (Homo sapiens, PBMC): 0.562 µM

SMILES: COc1cc(SC)ccc1C(=O)Nc1ccc(-n2nc(C(F)(F)F)cc2C(F)(F)F)cc1 [Example 179, N-[4-[3,5-bis(trifluoromethyl)-1H-pyrazol-1-yl]phenyl]-2-methoxy-4-(methythio)benzamide]
- IC50: 8.87 µM
- % Inhibition of proliferation (at concentrations of 1,10, or 100 μm) [3]: 47(10) %

SMILES: O=C(Nc1ccccc1Br)c1ccc(-n2nc(C(F)(F)F)cc2C(F)(F)F)cc1 [Example 192, 4-[3,5-Bis(trifluoromethyl)-1H-pyrazol-1-yl]-N-(2-bromophenyl)benzamide]
- inhibition at 1 µM [4]: 10%

SMILES: O=C(Nc1ccc(-n2nc(C(F)(F)F)cc2C(F)(F)F)cc1)c1cccc([N+](=O)[O-])c1Br [Example 205, N-[4-[3,5-bis(trifluoromethyl)-1H-pyrazol-1-yl]phenyl]-2-bromo-3-nitrobenzamide]
- inhibition at 10 µM [1]: 100%
- IC50 (Homo sapiens, PBMC): 0.196 µM

SMILES: O=C(Nc1ccc(-n2nc(C(F)(F)F)cc2C(F)(F)F)cc1)c1ccc(Br)cc1Cl [Example 217, N-[4-[3,5-bis(trifluoromethyl)-1H-pyrazol-1-yl]phenyl]-4-bromo-2-chlorobenzamide]
- inhibition at 10 µM [1]: 100%
- IC50 (Homo sapiens, PBMC): 0.218 µM

SMILES: O=C(Nc1ccc(-n2nc(C(F)(F)F)cc2C(F)(F)F)cc1)c1ccc(O)c(Br)c1 [Example 222]
- IC50: 0.76 µM
- % Inhibition of proliferation (at concentrations of 1,10, or 100 μm) [3]: 100(10) %

SMILES: O=C(Nc1ccc(-n2nc(C(F)(F)F)cc2C(F)(F)F)cc1)c1cc([N+](=O)[O-])c(Cl)c([N+](=O)[O-])c1Cl [Example 233, N-4-[3,5-bis(trifluoromethyl)-1H-pyrazol-1-yl]phenyl-2,4-dichloro-3,5-dinitrobenzamide]
- IC50: 0.34 µM
- % Inhibition of proliferation (at concentrations of 1,10, or 100 μm) [3]: 100(10) %

SMILES: O=C(Nc1ccc(-n2nc(C(F)(F)F)cc2C(F)(F)F)cc1)c1c(F)c(F)c(Br)c(F)c1F [Example 236, N-[4-[3,5-bis(trifluoromethyl)-1H-pyrazol-1-yl]phenyl]-4-bromo-2,3,5,6-tetrafluorobenzamide]
- inhibition at 10 µM [1]: 100%
- IC50 (Homo sapiens, PBMC): 0.18 µM

SMILES: O=C(Nc1ccc(-n2nc(C(F)(F)F)cc2C(F)(F)F)cc1)c1ccc(Br)o1 [Example 251, N-[4-[3,5-bis(trifluoromethyl)-1H-pyrazol-1-yl]phenyl]-5-bromo-2-furancarboxamide]
- inhibition at 1 µM [4]: 50%

SMILES: O=C1CCC(C(=O)Nc2ccc(-n3nc(C(F)(F)F)cc3C(F)(F)F)cc2)N1 (centres unmarked) [Example 255, N-[4-[3,5-bis(trifluoromethyl)-1H-pyrazol-1-yl]phenyl]-5-oxo-2-pyrrolidinecarboxamide]
- inhibition at 1 µM [4]: 12%

SMILES: O=C(Nc1ccc(-n2nc(C(F)(F)F)cc2C(F)(F)F)cc1)c1cncc(Br)c1 [Example 256, N-[4-[3,5-bis(trifluoromethyl)-1H-pyrazol-1-yl]phenyl]-5-bromo-3-pyridinecarboxamide]
- inhibition at 10 µM [1]: 100%
- IC50 (Homo sapiens, PBMC): 0.25 µM

SMILES: O=C(Nc1ccc(-n2nc(C(F)(F)F)cc2C(F)(F)F)cc1)c1cc(Br)c(Br)s1 [Example 263, N-[4-[3,5-bis(trifluoromethyl)-1H-pyrazol-1-yl]phenyl]-2,3-dibromo-5-thiophenecarboxamide]
- inhibition at 10 µM [1]: 100%
- IC50 (Homo sapiens, PBMC): 2.93 µM

SMILES: O=C(Nc1ccc(-n2nc(C(F)(F)F)cc2C(F)(F)F)cc1)c1cc(Cl)cnc1Cl [Example 270, N-[4-[3,5-bis(trifluoromethyl)-1H-pyrazol-1-yl]phenyl]-2,5-dichloro-3-pyridinecarboxamide]
- inhibition at 10 µM [1]: 100%
- IC50 (Homo sapiens, PBMC): 0.228 µM

SMILES: COC(=O)c1cc(NC(=O)c2cc(Br)ccc2Cl)ccc1-n1nc(C(F)(F)F)cc1C(F)(F)F [Example 274, methyl 2-[3,5-bis(trifluoromethyl)-1H-pyrazol-1-yl]-5-[(5-bromo-2-chlorobenzoyl)amino]benzoate]
- inhibition at 10 µM [1]: 100%
- IC50 (Homo sapiens, PBMC): 2.18 µM

SMILES: Cc1cc(C(F)(F)F)nn1-c1ccc(NC(=O)c2ccc(Cl)cc2)cc1 [Example 281, 4-chloro-N-[4-[5-methyl-3-(trifluoromethyl)-1H-pyrazol-1-yl]phenyl]benzamide]
- inhibition at 100 µM (Homo sapiens, PBMC): 94%
- IC50 (Homo sapiens, PBMC): 1.06 µM

SMILES: Nc1cnccc1C(=O)Nc1ccc(-n2nc(C(F)(F)F)cc2C(F)(F)F)cc1 [Example 290, 3-amino-N-(4-(3,5-bis(trifluoromethyl)-1H-pyrazol-1-yl)phenyl)isonicotinamide]
- IC50 (Homo sapiens, PBMC): 0.373 µM

SMILES: O=C(Nc1ccc(-n2nc(C(F)(F)F)cc2C(F)(F)F)nc1)c1ccccc1F [Example 292, N-(6-(3,5-bis(trifluoromethyl)-1H-pyrazol-1-yl)-3-pyridinyl)-2-fluorobenzamide]
- IC50 (Homo sapiens, PBMC): 0.258 µM

SMILES: COC(=O)c1cc(NC(=O)c2ccccc2F)ccc1-n1nc(C(F)(F)F)cc1C(F)(F)F [Example 293, methyl 2-(3,5-bis(trifluoromethyl)-1H-pyrazol-1-yl)-5-((2-fluorobenzoyl)amino)benzoate]
- IC50 (Homo sapiens, PBMC): 0.409 µM

SMILES: NCc1ccc(C(=O)Nc2ccc(-n3nc(C(F)(F)F)cc3C(F)(F)F)cc2)c(Cl)c1 [Example 294, 4-(aminomethyl)-N-(4-(3,5-bis(trifluoromethyl)-1H-pyrazol-1-yl)phenyl)-2-chlorobenzamide]
- IC50 (Homo sapiens, PBMC): 0.299 µM

SMILES: O=C(Nc1ccc(-n2nc(C(F)(F)F)cc2C(F)(F)F)cn1)c1ccccc1F [Example 297, N-(5-(3,5-bis(trifluoromethyl)-1H-pyrazol-1-yl)-2-pyridinyl)-2-fluorobenzamide]
- IC50 (Homo sapiens, PBMC): 0.251 µM
